Assay results taken from patent EP2886105B1, “Controlled-release formulations” (CAMURUS AB, priority 2007, dated 2018).
Counter-ions that a name gives are not always drawn.

Tests used:
[1] = In vivo release of SOM after subcutaneous injection, plasma SOM by ELISA; design: species or system rat
Description: A liquid lipid formulation comprising SPC/GDO/EtOH = 44/44/12 wt% was prepared as described in Example 1.
A freeze-dried powder of SOM (MW ca 1.6 kDa) and TRE was prepared in the same way as in Example 4 giving a SOM (free base)-to-TRE weight ratio of 1:2.5.
The freeze-dried powder was added to the lipid formulation such that the final SOM (free base) concentration in the formulation was 2 wt% (ca 20 mg/mL) followed by end-over-end rotation for 1 day. […] The final filter-sterilized formulation was then injected subcutaneously to rats (male Sprague-Dawley).
In the in vivo rat model the release of SOM was followed during 14 days. The formulations were administered subcutaneously between the scapulae by using a syringe (23G, 0.6mm × 25mm). The SOM concentration in the rat plasma was quantified using a commercial ELISA kit (S-1164, Bachem/Peninsula Laboratories, LOQ = 0.03 ng/mL). The dose was 20 mg/kg and dose volume was 1 mL/kg corresponding to a drug load of 2.0wt% SOM (free base).

[2] = natural Somatostatin; cited from earlier work
[3] = cited from earlier work

For `C[C@H](N)C(=O)NCC(=O)N[C@H]1CSSC[C@@H](C(=O)O)NC(=O)[C@H](CO)NC(=O)[C@H]([C@@H](C)O)NC(=O)[C@H](Cc2ccccc2)NC(=O)[C@H]([C@@H](C)O)NC(=O)[C@H](CCCCN)NC(=O)[C@H](Cc2c[nH]c3ccccc23)NC(=O)[C@H](Cc2ccccc2)NC(=O)[C@H](Cc2ccccc2)NC(=O)[C@H](CC(N)=O)NC(=O)[C@H](CCCCN)NC1=O` [SOM, Somatostatin, acetate salt], the Release profile ([1]; rat plasma, subcutaneous, 20 mg/kg SOM lipid formulation, low initial release) was “without a burst effect”, the “SOM levels higher than the endogenous SOM levels (factor)” value ([1]; rat plasma, versus placebo formulation, depending on time point, over at least 14 days, s.c. 20 mg/kg) was 2-9 and the Duration of release ([1]; rat, subcutaneous, 20 mg/kg SOM lipid formulation) was “at least 14 days”. The biological half-life [2] was 1-3 minutes and the “half-life of SOM in rat plasma” value [3] was “a few minutes”.
